The record followed here is patent US12421253B2 (Mirati Therapeutics, Inc., priority 2020, dated 2025).

For one experiment, the target named is KRas^Q61H (Homo sapiens, UniProt P01116, Q61H). The experiment in a line: biochemical.
A further experiment addresses KRas^G12C (Homo sapiens, UniProt P01116, G12C). Nature of the experiment: biochemical.
The target in another experiment is T1, KRas^G12D (Homo sapiens, UniProt P01116, G12D).
T1 construct: […]; biotin (biotinylated); purchased Accelegan Inc
T1 sequence (P01116 1-169 isoform P01116-2 G12D): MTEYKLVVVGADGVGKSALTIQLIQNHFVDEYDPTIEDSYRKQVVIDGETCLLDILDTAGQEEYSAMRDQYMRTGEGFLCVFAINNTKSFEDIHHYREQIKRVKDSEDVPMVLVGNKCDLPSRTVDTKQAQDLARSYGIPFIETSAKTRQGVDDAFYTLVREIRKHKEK
The experiment in a line: KRas binding assay (TR-FRET displacement of Cy5 labelled tracer). (In general: In TR-FRET formats the signal depends on donor and acceptor labels being close together.)

The next experiment addresses T2, KRas^WT (Homo sapiens, UniProt P01116).
T2 construct: […]; biotin (biotinylated); purchased Accelegan Inc
The description is as above.

In another experiment the target is T3, KRas^G12S (Homo sapiens, UniProt P01116, G12S).
T3 construct: […]; biotin (biotinylated); purchased Accelegan Inc
T3 sequence (P01116 1-169 isoform P01116-2 G12S): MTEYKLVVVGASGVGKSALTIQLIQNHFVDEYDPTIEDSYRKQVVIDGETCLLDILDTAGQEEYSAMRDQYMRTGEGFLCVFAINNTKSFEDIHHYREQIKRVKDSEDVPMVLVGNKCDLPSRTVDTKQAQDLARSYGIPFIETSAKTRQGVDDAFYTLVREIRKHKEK
The experiment is described as above.

A further experiment addresses KRas^G13D (Homo sapiens, UniProt P01116, G13D). Nature of the experiment: biochemical.
A further experiment addresses T4, KRas^G12V (Homo sapiens, UniProt P01116, G12V).
T4 construct: […]; biotin (biotinylated); purchased Accelegan Inc
Nature of the experiment: KRas binding assay (TR-FRET displacement of Cy5 labelled tracer).

The target of another experiment is T5, KRas^G12R (Homo sapiens, UniProt P01116, G12R).
T5 construct: […]; biotin (biotinylated); purchased Accelegan Inc
T5 sequence (P01116 1-169 isoform P01116-2 G12R): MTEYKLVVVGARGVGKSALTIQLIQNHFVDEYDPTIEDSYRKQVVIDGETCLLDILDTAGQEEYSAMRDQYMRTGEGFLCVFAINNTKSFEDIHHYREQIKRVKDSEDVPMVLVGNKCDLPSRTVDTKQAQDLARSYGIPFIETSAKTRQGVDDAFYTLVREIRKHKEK
The experiment is described as above.

The next experiment deals with T6, KRas^G12A (Homo sapiens, UniProt P01116, G12A).
T6 construct: […]; biotin (biotinylated); purchased Accelegan Inc
T6 sequence (P01116 1-169 isoform P01116-2 G12A): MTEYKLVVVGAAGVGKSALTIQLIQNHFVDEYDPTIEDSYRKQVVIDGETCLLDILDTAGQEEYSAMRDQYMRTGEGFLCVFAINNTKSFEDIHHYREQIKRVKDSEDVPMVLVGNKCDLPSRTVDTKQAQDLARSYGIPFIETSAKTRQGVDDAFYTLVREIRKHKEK
The description is as above.

What is called IC50 is the concentration needed to halve the response being measured. High values mean lower potency, low ones higher potency.

T2 sequence (P01116 1-169 isoform P01116-2): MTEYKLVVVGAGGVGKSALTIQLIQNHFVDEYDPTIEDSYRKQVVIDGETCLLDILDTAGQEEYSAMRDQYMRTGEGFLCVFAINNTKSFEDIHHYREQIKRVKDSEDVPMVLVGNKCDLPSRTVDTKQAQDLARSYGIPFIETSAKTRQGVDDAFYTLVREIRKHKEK
T4 sequence (P01116 1-169 isoform P01116-2 G12V): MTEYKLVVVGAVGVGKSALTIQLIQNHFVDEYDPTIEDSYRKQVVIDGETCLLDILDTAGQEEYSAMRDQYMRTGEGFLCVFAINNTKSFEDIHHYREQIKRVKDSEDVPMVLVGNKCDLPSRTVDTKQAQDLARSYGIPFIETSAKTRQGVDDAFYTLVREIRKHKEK
KRas^G13D, sequence (P01116 1-169 isoform P01116-2 G13D): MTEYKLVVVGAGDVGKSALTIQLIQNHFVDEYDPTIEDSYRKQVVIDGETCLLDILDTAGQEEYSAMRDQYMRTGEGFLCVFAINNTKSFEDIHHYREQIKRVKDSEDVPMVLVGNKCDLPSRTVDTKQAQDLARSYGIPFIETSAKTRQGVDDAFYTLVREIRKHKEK
KRas^Q61H, sequence (P01116 1-169 isoform P01116-2 Q61H): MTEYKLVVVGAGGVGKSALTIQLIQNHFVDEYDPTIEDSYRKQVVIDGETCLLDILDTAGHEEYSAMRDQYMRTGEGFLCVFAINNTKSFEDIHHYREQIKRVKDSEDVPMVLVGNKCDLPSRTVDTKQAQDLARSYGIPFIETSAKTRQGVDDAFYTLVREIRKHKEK
KRas^G12C, sequence (P01116 1-169 isoform P01116-2 G12C): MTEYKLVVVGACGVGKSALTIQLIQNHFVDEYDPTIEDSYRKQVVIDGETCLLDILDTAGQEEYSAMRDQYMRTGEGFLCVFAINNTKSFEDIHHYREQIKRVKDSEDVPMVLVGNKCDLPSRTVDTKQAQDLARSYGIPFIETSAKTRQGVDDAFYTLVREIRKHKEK
Method for KRas^G12A: (§1) The ability of a compound to bind to KRas was measured using a TR-FRET displacement assay. […] After a 60-minute incubation at room temperature, the reaction was measured using a BMG LABTECH CLARIO star Plus via TR-FRET. […] The POC values were fit to a 4-parameter IC50 equation and the IC50 value reported.
Method for KRas^G12C: as §1
Method for KRas^G12D: as §1
Method for KRas^G12R: as §1
Method for KRas^G12S: as §1
Method for KRas^G12V: as §1
Method for KRas^G13D: as §1
Method for KRas^Q61H: as §1
Method for KRas^WT: as §1

For the compound `CCc1cccc2cccc(N3CCc4c(nc(OCC56CCCN5CCC6)nc4N4CCn5ncc(S(C)(=O)=O)c5C4)C3)c12` [Example 144, 7-(8-ethylnaphthalen-1-yl)-4-(3-(methylsulfonyl)-6,7-dihydropyrazolo[1,5-a]pyrazin-5(4H)-yl)-2-((tetrahydro-1H-pyrrolizin-7a(5H)-yl)methoxy)-5,6,7,8-tetrahydropyrido[3,4-d]pyrimidine], the IC50 at KRas^Q61H was determined as 10.6 µM; at KRas^G12C it was 4.98 µM; on KRas^G12D, 1.26 µM; at KRas^WT, 7.51 µM; at KRas^G12S, 5.68 µM; against KRas^G13D it was 10.1 µM. Further, the results for the IC50 on KRas^G12V, on KRas^G12R and at KRas^G12A were 6.28 µM, 11.1 µM and 8.49 µM, respectively.
For `CCc1cccc2cccc(N3CCc4c(nc(OCC56CCCN5CCC6)nc4NC4CN(C(N)=O)C4)C3)c12` [Example 147, 3-((7-(8-ethylnaphthalen-1-yl)-2-((tetrahydro-1H-pyrrolizin-7a(5H)-yl)methoxy)-5,6,7,8-tetrahydropyrido[3,4-d]pyrimidin-4-yl)amino)azetidine-1-carboxamide], the 50% inhibitory concentration (IC50) turned out to be 3.21 µM at KRas^Q61H; 1.65 µM on KRas^G12C; 1.32 µM at KRas^G12D; 2.45 µM at KRas^WT; 2.15 µM at KRas^G12S; 3.63 µM against KRas^G13D. The IC50 turned out to be 1.45 µM at KRas^G12V, 1.49 µM at KRas^G12R and 2.71 µM on KRas^G12A.
On to `CCc1cccc2cccc(N3CCc4c(nc(OCC56CCCN5CCC6)nc4NC[C@H]4CCC(=O)N4)C3)c12` [Example 148, (R)-5-(((7-(8-ethylnaphthalen-1-yl)-2-((tetrahydro-1H-pyrrolizin-7a(5H)-yl)methoxy)-5,6,7,8-tetrahydropyrido[3,4-d]pyrimidin-4-yl)amino)methyl)pyrrolidin-2-one], for which the IC50 on KRas^Q61H was found to be 7.8 µM; against KRas^G12C, 3.07 µM; at KRas^G12D, 7.62 µM; at KRas^WT it was 7.31 µM; on KRas^G12S it was 2.9 µM; at KRas^G13D it was 7.15 µM. Further, the figures for the IC50 on KRas^G12V, at KRas^G12R and on KRas^G12A were 1.35 µM, 4.35 µM and 3.24 µM, respectively.
Regarding `CCc1cccc2cccc(N3CCc4c(nc(OCC56CCCN5CCC6)nc4N4CC5(CNC(=O)N5)C4)C3)c12` [Example 149, 2-(7-(8-ethylnaphthalen-1-yl)-2-((tetrahydro-1H-pyrrolizin-7a(5H)-yl)methoxy)-5,6,7,8-tetrahydropyrido[3,4-d]pyrimidin-4-yl)-2,5,7-triazaspiro[3.4]octan-6-one], the IC50 against KRas^Q61H came out at 6.31 µM; against KRas^G12C it was 1.85 µM; at KRas^G12D, 43 µM; at KRas^WT it was 4.75 µM; at KRas^G12S, 3.35 µM; against KRas^G13D it was 6.89 µM. Further, the results for the IC50 on KRas^G12V, on KRas^G12R and at KRas^G12A were 1.42 µM, 1.82 µM and 2.54 µM, respectively.
`CCc1cccc2cccc(N3CCc4c(nc(OCC56CCCN5CCC6)nc4NC4CN(c5ccccn5)C4)C3)c12` [Example 150, 7-(8-ethylnaphthalen-1-yl)-N-(1-(pyridin-2-yl)azetidin-3-yl)-2-((tetrahydro-1H-pyrrolizin-7a(5H)-yl)methoxy)-5,6,7,8-tetrahydropyrido[3,4-d]pyrimidin-4-amine]: the IC50 amounted to 5.16 µM against KRas^Q61H; 1.95 µM on KRas^G12C; 5.53 µM on KRas^G12D; 4.73 µM on KRas^WT; 4.87 µM on KRas^G12S; 5.98 µM against KRas^G13D. Further, the IC50 at KRas^G12V is 2.55 µM; on KRas^G12R, 1.56 µM; on KRas^G12A it was 5.03 µM.
For the compound `CCc1cccc2cccc(N3CCc4c(nc(OCC56CCCN5CCC6)nc4N4CCC(n5ccnn5)CC4)C3)c12` [Example 151, 4-(4-(1H-1,2,3-triazol-1-yl)piperidin-1-yl)-7-(8-ethylnaphthalen-1-yl)-2-((tetrahydro-1H-pyrrolizin-7a(5H)-yl)methoxy)-5,6,7,8-tetrahydropyrido[3,4-d]pyrimidine], the 50% inhibitory concentration (IC50) on KRas^Q61H came out at 4.58 µM; at KRas^G12C, 3.47 µM; on KRas^G12D, 30.9 µM; at KRas^WT, 3.65 µM; on KRas^G12S, 4.72 µM; against KRas^G13D it was 2.7 µM. Also, the IC50 at KRas^G12V amounted to 5.41 µM; at KRas^G12R, 1.61 µM; at KRas^G12A it was 2.69 µM.
Turning to `CCc1cccc2cccc(N3CCc4c(nc(OCC56CCCN5CCC6)nc4NC4CCNC(=O)C4)C3)c12` (stereo not drawn) [Example 153, 4-((7-(8-ethylnaphthalen-1-yl)-2-((tetrahydro-1H-pyrrolizin-7a(5H)-yl)methoxy)-5,6,7,8-tetrahydropyrido[3,4-d]pyrimidin-4-yl)amino)piperidin-2-one], the half-inhibitory concentration (IC50) was 8.15 µM against KRas^Q61H; 3.51 µM against KRas^G12C; 1.73 µM at KRas^G12D; 8.43 µM at KRas^WT; 4.17 µM on KRas^G12S; 6.44 µM at KRas^G13D. The figures for the IC50 on KRas^G12V, on KRas^G12R and at KRas^G12A were 3.36 µM, 4.66 µM and 7.28 µM, respectively.
Take `CCc1cccc2cccc(N3CCc4c(nc(OCC56CCCN5CCC6)nc4NCCNc4ncccc4C#N)C3)c12` [Example 154, 2-((2-((7-(8-ethylnaphthalen-1-yl)-2-((tetrahydro-1H-pyrrolizin-7a(5H)-yl)methoxy)-5,6,7,8-tetrahydropyrido[3,4-d]pyrimidin-4-yl)amino)ethyl)amino)nicotinonitrile]: the IC50 at KRas^Q61H was determined as 6.91 µM; against KRas^G12C, 1.79 µM; on KRas^G12D it was 35.7 µM; on KRas^WT, 6.79 µM; on KRas^G12S, 7.12 µM; on KRas^G13D, 8.23 µM. The figures for the IC50 on KRas^G12V, on KRas^G12R and on KRas^G12A were 3.07 µM, 2.37 µM and 4.04 µM, respectively.
On to `CCc1cccc2cccc(N3CCc4c(nc(OCC56CCCN5CCC6)nc4NCc4c5c(n[nH]c4=O)CCCC5)C3)c12` [Example 155, 4-(((7-(8-ethylnaphthalen-1-yl)-2-((tetrahydro-1H-pyrrolizin-7a(5H)-yl)methoxy)-5,6,7,8-tetrahydropyrido[3,4-d]pyrimidin-4-yl)amino)methyl)-5,6,7,8-tetrahydrocinnolin-3(2H)-one], for which the concentration for half-maximal inhibition (IC50) against KRas^Q61H was determined as 4.67 µM; at KRas^G12C, 4.42 µM; at KRas^G12D, 22.4 µM; on KRas^WT, 3.17 µM; on KRas^G12S, 3.4 µM; against KRas^G13D it was 4.86 µM. Further, the IC50 on KRas^G12V was determined as 7.31 µM; at KRas^G12R it was 4.92 µM; on KRas^G12A, 1.86 µM.
With `CCc1cccc2cccc(N3CCc4c(nc(OCC56CCCN5CCC6)nc4NCc4nc5ncccc5o4)C3)c12` [Example 157, 7-(8-ethylnaphthalen-1-yl)-N-(oxazolo[4,5-b]pyridin-2-ylmethyl)-2-((tetrahydro-1H-pyrrolizin-7a(5H)-yl)methoxy)-5,6,7,8-tetrahydropyrido[3,4-d]pyrimidin-4-amine], the IC50 on KRas^Q61H is 19.9 µM; at KRas^G12C, 7.02 µM; at KRas^G12D, 6.3 µM; on KRas^WT, 17.3 µM; on KRas^G12S it was 10.6 µM; at KRas^G13D, 15.5 µM. Also, the IC50 on KRas^G12V turned out to be 1.95 µM; at KRas^G12R, 9.04 µM; on KRas^G12A, 24.3 µM.
In the case of `CCc1cccc2cccc(N3CCc4c(nc(OCC56CCCN5CCC6)nc4NCCNS(N)(=O)=O)C3)c12` [Example 160, N-(2-((7-(8-ethylnaphthalen-1-yl)-2-((tetrahydro-1H-pyrrolizin-7a(5H)-yl)methoxy)-5,6,7,8-tetrahydropyrido[3,4-d]pyrimidin-4-yl)amino)ethyl)sulfamide], the IC50 on KRas^Q61H amounted to 11 µM; on KRas^G12C, 4.24 µM; at KRas^G12D, 4.45 µM; on KRas^WT, 8.74 µM; on KRas^G12S, 6.74 µM; against KRas^G13D, 10 µM. The IC50 on KRas^G12V was found to be 2.56 µM; on KRas^G12R it was 7.65 µM; at KRas^G12A it was 9.26 µM.
As to `CCc1cccc2cccc(N3CCc4c(nc(OCC56CCCN5CCC6)nc4NCc4nnc(CSC)[nH]4)C3)c12` [Example 161, 7-(8-ethylnaphthalen-1-yl)-N-((5-((methylthio)methyl)-4H-1,2,4-triazol-3-yl)methyl)-2-((tetrahydro-1H-pyrrolizin-7a(5H)-yl)methoxy)-5,6,7,8-tetrahydropyrido[3,4-d]pyrimidin-4-amine], the IC50 on KRas^Q61H is 21.3 µM; on KRas^G12C it was 6.79 µM; on KRas^G12D, 7.69 µM; at KRas^WT, 27.4 µM; at KRas^G12S it was 15 µM; against KRas^G13D, 25.2 µM. For the same compound, the values for the IC50 on KRas^G12V, on KRas^G12R and at KRas^G12A were 2.74 µM, 14.6 µM and 21.7 µM, respectively.
As to `CCc1cccc2cccc(N3CCc4c(nc(OCC56CCCN5CCC6)nc4N4CCCC(c5nc(C)no5)C4)C3)c12` (stereo not drawn) [Example 162, 5-(1-(7-(8-ethylnaphthalen-1-yl)-2-((tetrahydro-1H-pyrrolizin-7a(5H)-yl)methoxy)-5,6,7,8-tetrahydropyrido[3,4-d]pyrimidin-4-yl)piperidin-3-yl)-3-methyl-1,2,4-oxadiazole], the IC50 against KRas^Q61H stood at 3.98 µM; at KRas^G12C it was 3.79 µM; on KRas^G12D it was 7.51 µM; at KRas^WT, 4.08 µM; on KRas^G12S it was 3.43 µM; at KRas^G13D, 3.41 µM. For the same compound, the IC50 at KRas^G12V is 8.35 µM; at KRas^G12R, 2.79 µM; at KRas^G12A, 5.22 µM.
